Values joined by “and” are separate entries in the source; they are usually repeats but may differ in a detail not shown here. Equal entries are not always repeated.
System: hypercholesterolemia in Wistar rats
Test: Model of hypercholesterolemia in rats (oral cholesterol loading)
Type: in vivo, rat
Protocol: The study was carried out on male Wistar rats weighing 200±20 g. Hyperlipidemia was induced by oral administration of cholesterol loading, oily cholesterol suspension:
olive oil (Acorsa, Spain)—5 ml/kg weigh of animals;
cholesterol (Sigma, USA)—1 g/kg weight;
sodium cholate (Sigma, USA)—100 mg/kg weight.
As a reference preparation, the preparation from the group of statines “Mevacor” (Lovastatine) manufactured by the firm Merck Sharp & Dohn was used at dose 40 mg/kg. Cholesterol suspension was administered daily in the morning for 10 days. The compounds tested (at dose 500 μg/kg) and the reference preparation (at dose 40 mg/kg) were administered to the animals togester with cholesterol suspension for 10 days. All the animals received a standard briquetted forage.
The animals were divided into the following groups:
“Control”—intact animals (n=5);
“Cholesterol”—rats that orally received cholesterol loading (n=10);
“Lovastatine”—rats that orally received cholesterol loading and Lovastatine (n=10);
“Compound IV”—rats that orally received cholesterol loading and the tested compound IV (n=10).
Blood was sampled at days 5, 8 and 10 of the experiment.
Statistical processing of the hypolipidemic action data of the tested substances was carried out with regard to the “Cholesterol” group (Table 13).
Experimental groups included:
1) “Cholesterol”—rats orally administered with oily cholesterol suspension for 10 days;
2) “Compound IV”—rats orally administered with oily cholesterol suspension and the tested compound N;
3) “Compound IV—1Na”—rats orally administered with oily cholesterol suspension and the tested mono-sodium salt of compound N;
4) “Compound IV—2Na”—rats orally administered with oily cholesterol suspension and the tested di-sodium salt of compound N;
5) “Compound V—1Na”—rats orally administered with oily cholesterol suspension and the tested mono-sodium salt of the compound V;
6) “Compound III—1Na”—rats orally administered with oily cholesterol suspension and the tested mono-sodium salt of the compound III;
7) “Compound II—1Na”—rats orally administered with oily cholesterol suspension and the tested mono-sodium salt of the compound II;
8) “Sim”—rats orally administered with oily cholesterol suspension and Simvastatine;
9) control—intact rats before beginning the test.
At day 10 of the test blood samples were taken following decapitation of the animals. The animals fasted for 12 hours prior to decapitation.
Blood serum total cholesterol, triglycerides and high density lipoprotein cholesterol (HDLC) were measured. Low and very low density lipoprotein cholesterol was calculated by the difference between total cholesterol and HDL cholesterol.
Blood serum total cholesterol and triglycerides were determined using the enzymatic methods.
Cholesterol level in high density lipoproteins (α-LP) was determined using the precipitation method of LDL and VLDL with phosphotungstic acid and magnesium ions.
Data in the tables are presented as a mean value±standard error. Significance of differences between the groups “cholesterol” and “preparation.” was assessed by the two-sampled Student's t-test.

[1] = day 5 of the experiment (Table 15)
[2] = day 5 of the experiment (Table 15), oral with oily cholesterol suspension
[3] = day 8 of the experiment (Table 16)
[4] = day 10 of the experiment (Table 17)
[5] = day 10 of the experiment (Table 21), Monosodium Salt
[6] = day 5 of the experiment (Table 19)
[7] = day 5 of the experiment (Table 19, n = 12 series)
[8] = day 8 of the experiment (Table 20)
[9] = day 10 of the experiment (Table 21)
[10] = rats with cholesterol loading, vs Cholesterol group
[11] = oral 10 days with cholesterol loading, tested compound 500 μg/kg, reference 40 mg/kg (Table 13)

For `O=C([O-])CCCC(=O)N[C@@H](Cc1c[nH]cn1)C(=O)O.[Na+]` [Compound IV-1Na, N^α-glutaryl-L-histidine Monosodium Salt], the “Total cholesterol, HDL” value [1] was 33.1 ± 1.4 mg/100 ml, the “Total cholesterol, LDL + VLDL” value [1] was 38.8 ± 2.9 mg/100 ml and the “Triglycerides, Serum” value [1] was 106.6 ± 6.2 mg/100 ml. For the same compound, the “Total cholesterol, Serum” value [2] was 72.0 ± 3.0 mg/100 ml, the “Total cholesterol, HDL” value (day 5 of the experiment (Table 19), Monosodium Salt) was 60.7 ± 3.1 mg/100 ml and 55.1 ± 2.8 mg/100 ml and the “Total cholesterol, Serum” value (day 5 of the experiment (Table 19, n = 12 series), Monosodium Salt) was 94.4 ± 3.4 mg/100 ml and 96.9 ± 4.5 mg/100 ml. The “Total cholesterol, HDL” value [3] was 37.1 ± 1.4 mg/100 ml, the “Total cholesterol, LDL + VLDL” value [3] was 61.9 ± 6.6 mg/100 ml and the “Total cholesterol, Serum” value [3] was 99.1 ± 6.0 mg/100 ml. The “Triglycerides, Serum” value [3] was 146.4 ± 11.2 mg/100 ml, the “Total cholesterol, HDL” value [4] was 37.7 ± 1.0 mg/100 ml and the “Total cholesterol, LDL + VLDL” value [4] was 59.7 ± 7.2 mg/100 ml. For the same compound, the “Total cholesterol, Serum” value [4] was 97.4 ± 7.1 mg/100 ml, the “Triglycerides, Serum” value [4] was 132.5 ± 8.4 mg/100 ml and the “Total cholesterol, HDL” value [5] was 53.4 ± 2.2 mg/100 ml and 52.9 ± 3.8 mg/100 ml. For the same compound, the “Total cholesterol, LDL + VLDL” value [5] was 68.7 ± 10.1 mg/100 ml and 70.5 ± 8.9 mg/100 ml and the “Total cholesterol, Serum” value [5] was 122.1 ± 9.8 mg/100 ml and 123.3 ± 7.3 mg/100 ml.
`O=C([O-])CCCC(=O)N[C@@H](Cc1c[nH]cn1)C(=O)[O-].[Na+].[Na+]` [Compound IV” 2Na, N^α-glutaryl-L-histidine disodium salt] was tested, and the “Total cholesterol, HDL” value [1] was 35.0 ± 1.3 mg/100 ml, the “Total cholesterol, LDL + VLDL” value [1] was 44.3 ± 2.7 mg/100 ml and the “Triglycerides, Serum” value [1] was 88.3 ± 4.8 mg/100 ml. The “Total cholesterol, Serum” value [2] was 80.6 ± 2.8 mg/100 ml, the “Total cholesterol, HDL” value [3] was 35.9 ± 1.8 mg/100 ml and the “Total cholesterol, LDL + VLDL” value [3] was 54.3 ± 5.8 mg/100 ml. The “Total cholesterol, Serum” value [3] was 90.2 ± 5.1 mg/100 ml, the “Triglycerides, Serum” value [3] was 125.8 ± 9.4 mg/100 ml and the “Total cholesterol, HDL” value [4] was 40.0 ± 1.9 mg/100 ml. For the same compound, the “Total cholesterol, LDL + VLDL” value [4] was 57.3 ± 4.3 mg/100 ml, the “Total cholesterol, Serum” value [4] was 97.9 ± 3.9 mg/100 ml and the “Triglycerides, Serum” value [4] was 127.3 ± 6.2 mg/100 ml. For the same compound, the “effect on serum total triglycerides (in words)” value (rats with cholesterol loading) was “lowered serum total triglyceride levels at days 5 and 10”.
With `O=C([O-])CCC(=O)N[C@@H](Cc1c[nH]cn1)C(=O)O.[Na+]` [Compound V—1Na, N^α-succinyl-L-histidine Monosodium Salt] the “effect on serum total triglycerides (in words)” value (rats with cholesterol loading) was “ability thereof to lower serum total triglyceride levels”.
With `O=C(O)CCC(=O)N[C@@H](Cc1c[nH]c2ccccc12)C(=O)[O-].[Na+]` [II-1Na, N^+-succinyl-L-tryptophane Monosodium Salt] the “Total cholesterol, HDL” value [6] was 49.5 ± 3.8 mg/100 ml, the “Total cholesterol, LDL + VLDL” value [6] was 60.2 ± 10.6 mg/100 ml and the “Triglycerides, HDL” value [6] was 32.6 ± 2.5 mg/100 ml. The “Triglycerides, LDL + VLDL” value [6] was 48.2 ± 4.9 mg/100 ml, the “Triglycerides, Serum” value [6] was 80.9 ± 5.5 mg/100 ml and the “Total cholesterol, Serum” value [7] was 109.7 ± 9.4 mg/100 ml. For the same compound, the “Total cholesterol, HDL” value [8] was 52.9 ± 4.1 mg/100 ml, the “Total cholesterol, LDL + VLDL” value [8] was 87.9 ± 14.5 mg/100 ml and the “Total cholesterol, Serum” value [8] was 140.8 ± 13.6 mg/100 ml. The “Triglycerides, HDL” value [8] was 44.5 ± 2.5 mg/100 ml, the “Triglycerides, LDL + VLDL” value [8] was 73.9 ± 15.4 mg/100 ml and the “Triglycerides, Serum” value [8] was 111.6 ± 17.2 mg/100 ml. For the same compound, the “Total cholesterol, HDL” value [9] was 54.7 ± 2.2 mg/100 ml, the “Total cholesterol, LDL + VLDL” value [9] was 79.7 ± 12.6 mg/100 ml and the “Total cholesterol, Serum” value [9] was 134.4 ± 12.5 mg/100 ml. The “Triglycerides, HDL” value [9] was 38.9 ± 2.4 mg/100 ml, the “Triglycerides, LDL + VLDL” value [9] was 69.6 ± 11.1 mg/100 ml and the “Triglycerides, Serum” value [9] was 108.5 ± 11.3 mg/100 ml.
In the case of `O=C([O-])CCCC(=O)N[C@@H](Cc1c[nH]c2ccccc12)C(=O)O.[Na+]` [III-1Na, N^α-glutaryl-L-tryptophan Monosodium Salt], the “Total cholesterol, HDL” value [6] is reported as 49.0 ± 2.1 mg/100 ml, the “Total cholesterol, LDL + VLDL” value [6] is reported as 40.0 ± 5.4 mg/100 ml and the “Triglycerides, HDL” value [6] is reported as 30.0 ± 2.2 mg/100 ml. For the same compound, the “Triglycerides, LDL + VLDL” value [6] was 57.4 ± 9.1 mg/100 ml, the “Triglycerides, Serum” value [6] was 87.4 ± 9.4 mg/100 ml and the “Total cholesterol, Serum” value [7] was 89.0 ± 5.0 mg/100 ml. The “Total cholesterol, HDL” value [8] was 48.4 ± 2.7 mg/100 ml, the “Total cholesterol, LDL + VLDL” value [8] was 60.4 ± 8.3 mg/100 ml and the “Total cholesterol, Serum” value [8] was 108.8 ± 8.2 mg/100 ml. For the same compound, the “Triglycerides, HDL” value [8] was 45.2 ± 3.2 mg/100 ml, the “Triglycerides, LDL + VLDL” value [8] was 79.2 ± 7.7 mg/100 ml and the “Triglycerides, Serum” value [8] was 124.4 ± 8.9 mg/100 ml. For the same compound, the “Total cholesterol, HDL” value [9] was 48.8 ± 2.4 mg/100 ml, the “Total cholesterol, LDL + VLDL” value [9] was 53.5 ± 7.3 mg/100 ml and the “Total cholesterol, Serum” value [9] was 102.3 ± 6.9 mg/100 ml. For the same compound, the “Triglycerides, HDL” value [9] was 34.3 ± 2.3 mg/100 ml, the “Triglycerides, LDL + VLDL” value [9] was 75.0 ± 8.5 mg/100 ml and the “Triglycerides, Serum” value [9] was 109.3 ± 10.5 mg/100 ml. For the same compound, the “effect on HDL cholesterol (in words)” value (rats with cholesterol loading) was “did not change”, the “effect on serum total triglycerides (in words)” value (rats with cholesterol loading) was “did not change” and the “lowered cholesterol of the VLDL+LDL fractions” value [10] was 40%. It also gave a lowered total cholesterol [10] of 29%.
For `CC[C@H](C)C(=O)O[C@H]1C[C@@H](C)C=C2C=C[C@H](C)[C@H](CC[C@@H]3C[C@@H](O)CC(=O)O3)[C@H]21` [Lovastatine, reference compound], the “Total cholesterol, CHDL” value [11] was 50.6 ± 1.3 mg/100 ml, the “Total cholesterol, CLLD + CLVLD” value [11] was 49.9 ± 0.9 mg/100 ml and the “Total cholesterol, Liver” value [11] was 2.41 ± 0.17 mg/g of tissue. The “Total cholesterol, Serum” value [11] was 100.5 ± 6.7 mg/100 ml, the “Triglycerids, Liver” value [11] was 6.25 ± 0.13 mg/g of tissue and the “Triglycerids, Serum” value [11] was 93.6 ± 7.5 mg/100 ml.
`CCC(C)(C)C(=O)O[C@H]1C[C@@H](C)C=C2C=C[C@H](C)[C@H](CC[C@@H]3C[C@@H](O)CC(=O)O3)[C@H]21` [Sim, Simvastatine, reference compound] was tested, and the “Total cholesterol, HDL” value [1] was 27.8 ± 2.7 mg/100 ml, the “Total cholesterol, LDL + VLDL” value [1] was 43.0 ± 8.3 mg/100 ml and the “Triglycerides, Serum” value [1] was 108.9 ± 6.9 mg/100 ml. For the same compound, the “Total cholesterol, Serum” value [2] was 73.6 ± 7.3 mg/100 ml, the “Total cholesterol, HDL” value [3] was 33.2 ± 1.8 mg/100 ml and the “Total cholesterol, LDL + VLDL” value [3] was 66.9 ± 13.4 mg/100 ml. For the same compound, the “Total cholesterol, Serum” value [3] was 100.1 ± 12.8 mg/100 ml, the “Triglycerides, Serum” value [3] was 119.9 ± 10.5 mg/100 ml and the “Total cholesterol, HDL” value [4] was 32.7 ± 1.2 mg/100 ml. For the same compound, the “Total cholesterol, LDL + VLDL” value [4] was 61.2 ± 9.7 mg/100 ml, the “Total cholesterol, Serum” value [4] was 93.9 ± 10.2 mg/100 ml and the “Triglycerides, Serum” value [4] was 142.0 ± 5.4 mg/100 ml. For the same compound, the “effect on HDL cholesterol (in words)” value (rats with cholesterol loading) was “did not effect”.
